Where a name gives a salt, the structure may show the parent alone.
Assays:
[1] = system: stroke animal model (ischemia-reperfusion); details: cited from earlier work
[2] = system: model of focal ischemic stroke (middle cerebral artery occlusion, MCAO); experiment: Cerebral infarction inhibition in animal model of focal ischemic stroke (MCAO 1 hour, TTC staining, infarct volume); type: in vivo, rat; details: for inhibition effect of cerebral infarction: 30 minutes before MCAO (1 hour)
Procedure: A model of focal ischemic stroke in the rat according to the Longa's method (1989) was used. The animal model of stroke was established by occluding the middle cerebral artery (MCA) for 1 hour using nylon suture (middle cerebral artery occlusion, MCAO). In order to investigate the effect of pyruvate derivatives according to the present invention on cerebral ischemia, a rat was decapitated after reperfusion. The whole brain was sliced into 2 mm-thick coronal slices. The slices were immediately stained by immersing in 1% 2,3,5-triphenyl tetrazolium chloride (TTC). After keeping in 4% paraformaldehyde solution at 37° C. for 15 minutes, the brain slices were subjected to measurement and analysis using Quantity One software (Bio-Rad, Hercules, Calif., USA).

[3] = 1 mg/kg intravenously, 6 hours after reperfusion
[4] = 1 mg/kg intravenously, 12 hours after reperfusion
[5] = 5 mg/kg intravenously, 6 hours after reperfusion
[6] = 5 mg/kg intravenously, 12 hours after reperfusion
[7] = 10 mg/kg intravenously, 6 hours after reperfusion
[8] = 10 mg/kg intravenously, 12 hours after reperfusion

CCOC(=O)C(C)=O [ethyl pyruvate]
infarct size reduced to ([1]; abdominally administered within 12 hours after ischemia-reperfusion): ≤ 50%
infarct size reduced by ([1]; treatment within 24 hours): about 20%

CC(=O)C(=O)Oc1ccccc1C(=O)O [2-(2-oxopropanoyloxy)benzoic acid]
inhibition effect of cerebral infarction ([2]; 1 mg/kg intravenously): 42.0%
change in the infarct volume [2, 3]: no change
change in the infarct volume [2, 4]: no change
inhibition effect of cerebral infarction ([2]; 5 mg/kg intravenously): 90.2%
infarct volume reduced to, as compared to the control group [2, 5]: 47.5%
infarct volume reduced to, as compared to the control group [2, 6]: 57.4%
inhibition effect of cerebral infarction ([2]; 10 mg/kg intravenously): 89.5%
infarct volume reduced to, as compared to the control group [2, 7]: 26.6%
infarct volume reduced to, as compared to the control group [2, 8]: 64.3%

CC(=O)C(=O)Oc1ccc(NCc2c(F)c(F)c(C(F)(F)F)c(F)c2F)cc1C(=O)O [2-(2-oxopropanoyloxy)-5-(2,3,5,6-tetrafluoro-4-(trifluoromethyl)benzylamino)benzoic acid]
inhibition effect of cerebral infarction ([2]; 1 mg/kg intravenously): 20.2%
change in the infarct volume [2, 3]: no change
change in the infarct volume [2, 4]: no change
inhibition effect of cerebral infarction ([2]; 5 mg/kg intravenously): 90.9%
infarct volume reduced to, as compared to the control group [2, 5]: 24.5%
infarct volume reduced to, as compared to the control group [2, 6]: 56.8%
inhibition effect of cerebral infarction ([2]; 10 mg/kg intravenously): 88.4%
infarct volume reduced to, as compared to the control group [2, 7]: 33.3%
infarct volume reduced to, as compared to the control group [2, 8]: 62.4%
melting point: 128 °C

CC(=O)C(=O)Oc1cc(C(F)(F)F)ccc1C(=O)O (as salt: potassium) [2-(2-oxopropanoyloxy)-4-(trifluoromethyl)benzoic acid]
melting point: 163 °C

CC(=O)C(=O)N(C)CCC(Oc1ccc(C(F)(F)F)cc1)c1ccccc1 (stereo not shown) [N-methyl-2-oxo-N-(3-phenyl-3-(4-(trifluoromethyl)phenoxy)propyl)propanamide]
infarct volume reduced to, as compared to the control group [2, 7]: 16.0%

CC(=O)C(=O)Oc1cc(C(F)(F)F)ccc1C(=O)O [2-(2-oxopropanoyloxy)-4-(trifluoromethyl)benzoic acid]
inhibition effect of cerebral infarction as compared to the control group ([2]; 5 mg/kg intravenously, MCAO 1 hour, time not stated in b180 (FIG. 8: 6 hours following MCAO)): 71.3%

CC(=O)C(=O)NCCC(Oc1ccc(C(F)(F)F)cc1)c1ccccc1 (stereo not shown) [2-oxo-N-(3-phenyl-3-(4-(trifluoromethyl)phenoxy)propyl)propanamide]
infarct volume reduced to, as compared to the control group [2, 7]: 58.7%

Reference: patent US20110060156A1, “Pyruvate Derivatives with Neuroprotective Effect, Process for Preparing the Same and Pharmaceutical Composition Comprising the Same” (S.H. PHARMA., LTD., priority 2008, published 2011)
